This assay concerns the target T1, Recombinant human EP300 containing the bromodomain (EP300-BD (1040-1161)) (Homo sapiens, UniProt Q09472).
T1 construct: Recombinant human EP300 bromodomain (EP300-BD (1040-1161)); made in house; host or cells: E. coli BL21-CodonPlus (DE3), modified pET vector
T1 sequence (Q09472 1040-1161): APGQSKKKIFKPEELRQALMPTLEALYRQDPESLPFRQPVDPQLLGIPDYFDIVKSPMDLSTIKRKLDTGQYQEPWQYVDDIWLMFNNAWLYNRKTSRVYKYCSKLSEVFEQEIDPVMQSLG
Put plainly: EP300 Alphascreen binding assay. In short, it runs like this: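 Displacement of a biotinylated acetyl-K56 histone H3 peptide from the N-His bromodomain construct (1040-1161) measured by AlphaScreen proximity, beads at 7.5 μg/ml final, read 60 min after addition. Protein, peptide and compound first incubated 1 h at room temperature, pH 7.5 HEPES buffer; IC50 by four-parameter logistic fit.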

The values that follow come from US11446287B2, “Compounds and methods for EP300 or CBP modulation and indications therefor” (Opna Immuno-Oncology SA, priority 2019, dated 2022).

Broadly, the pIC50 is −log10 of the IC50, conventionally taken in molar units.

pIC50: −log10 of the molar value.

In the case of `CCOc1cc(C(=O)O)nc(OCC)c1-c1cn(-c2cn(C(F)F)nc2C)c2ncc(-c3c(C)noc3C)cc12` [P-0429, 5-(1-(1-(difluoromethyl)-3-methyl-1H-pyrazol-4-yl)-5-(3,5-dimethylisoxazol-4-yl)-1H-pyrrolo[2,3-b]pyridin-3-yl)-4,6-diethoxypicolinic acid], the pIC50 was 6.00 to 10.00.
The value for `CCOc1cc(C(=O)O)nc(OCC)c1-c1cn(-c2cn(CC)nc2C)c2ncc(-c3c(C)noc3C)cc12` [P-0430, 5-(5-(3,5-dimethylisoxazol-4-yl)-1-(1-ethyl-3-methyl-1H-pyrazol-4-yl)-1H-pyrrolo[2,3-b]pyridin-3-yl)-4,6-diethoxypicolinic acid] was 6.00 to 10.00; that for `CCOc1cc(C(=O)O)nc(OCC)c1-n1cc(-c2ccc(F)cc2F)c2ncc(-c3c(C)noc3C)cc21` [P-0431, 5-(3-(2,4-difluorophenyl)-6-(3,5-dimethylisoxazol-4-yl)-1H-pyrrolo[3,2-b]pyridin-1-yl)-4,6-diethoxypicolinic acid] was 6.00 to 10.00; that for `CCOc1cc(C(=O)OC)nc(OCC)c1-c1cn(-c2ccc(F)cc2F)c2ncc(-c3c(C)noc3C)cc12` [P-0432, methyl 5-(1-(2,4-difluorophenyl)-5-(3,5-dimethylisoxazol-4-yl)-1H-pyrrolo[2,3-b]pyridin-3-yl)-4,6-diethoxypicolinate] was 6.00 to 10.00.
For `CCOc1cc(C(=O)O)nc(OCC)c1-c1cn(C2CCN(C(=O)OC(C)(C)C)CC2)c2ncc(-c3c(C)noc3C)cc12` [P-0433, 5-(1-(1-(tert-butoxycarbonyl)piperidin-4-yl)-5-(3,5-dimethylisoxazol-4-yl)-1H-pyrrolo[2,3-b]pyridin-3-yl)-4,6-diethoxypicolinic acid] the value was 6.00 to 10.00; for `Cc1noc(C)c1-c1cnc2c(c1)c(C1CCC(C(=O)O)CC1)cn2-c1ccc(F)cc1F` (stereo not drawn) [P-0434, 4-(1-(2,4-difluorophenyl)-5-(3,5-dimethylisoxazol-4-yl)-1H-pyrrolo[2,3-b]pyridin-3-yl)cyclohexane-1-carboxylic acid], 6.00 to 10.00.
Turning to `CCOc1cc(C(=O)O)nc(OCC)c1-c1cn(C2CCN(S(C)(=O)=O)CC2)c2ncc(-c3c(C)noc3C)cc12` [P-0435, 5-(5-(3,5-dimethylisoxazol-4-yl)-1-(1-(methylsulfonyl)piperidin-4-yl)-1H-pyrrolo[2,3-b]pyridin-3-yl)-4,6-diethoxypicolinic acid], the pIC50 was 6.00 to 10.00.
For the molecule `CCOc1cc(C(=O)O)nc(OCC)c1-c1cn(-c2cccnc2)c2ncc(-c3c(C)noc3C)cc12` [P-0436, 5-(5-(3,5-dimethylisoxazol-4-yl)-1-(pyridin-3-yl)-1H-pyrrolo[2,3-b]pyridin-3-yl)-4,6-diethoxypicolinic acid], the pIC50 was 6.00 to 10.00.
For `Cc1noc(C)c1-c1cnc2c(c1)c(-c1ccc(CC(=O)O)cc1F)cn2-c1ccc(F)cc1F` [P-0437] the value was 6.00 to 10.00.
Take `Cc1noc(C)c1-c1cnc2c(c1)c(-c1ccc(CC(=O)O)cc1)cn2-c1ccc(F)cc1F` [P-0438, 2-(4-(1-(2,4-difluorophenyl)-5-(3,5-dimethylisoxazol-4-yl)-1H-pyrrolo[2,3-b]pyridin-3-yl)phenyl)acetic acid]: the pIC50 was 6.00 to 10.00.
Regarding `Cc1noc(C)c1-c1cnc2c(c1)c(-c1c(Cl)cc(C(=O)O)cc1OC(F)(F)F)cn2-c1cccnn1` [P-0439, 3-chloro-4-(5-(3,5-dimethylisoxazol-4-yl)-1-(pyridazin-3-yl)-1H-pyrrolo[2,3-b]pyridin-3-yl)-5-(trifluoromethoxy)benzoic acid], the pIC50 is 6.00 to 10.00.
Regarding `COC(=O)c1cc(Cl)c(-c2cn(-c3ccc(C4CC4)nc3)c3ncc(-c4c(C)noc4C)cc23)c(OC(F)(F)F)c1` [P-0440, methyl 3-chloro-4-(1-(6-cyclopropylpyridin-3-yl)-5-(3,5-dimethylisoxazol-4-yl)-1H-pyrrolo[2,3-b]pyridin-3-yl)-5-(trifluoromethoxy)benzoate], the pIC50 was 5.10 to 6.00.
Take `Cc1noc(C)c1-c1cnc2c(c1)c(-c1c(Cl)cc(C(=O)O)cc1OC(F)(F)F)cn2-c1ccc(C2CC2)nc1` [P-0441, 3-chloro-4-(1-(6-cyclopropylpyridin-3-yl)-5-(3,5-dimethylisoxazol-4-yl)-1H-pyrrolo[2,3-b]pyridin-3-yl)-5-(trifluoromethoxy)benzoic acid]: the pIC50 is 6.00 to 10.00.
The value for `CCOc1cc(C(=O)O)c(F)cc1-c1cn(C2CCN(C(=O)OC(C)(C)C)CC2)c2ncc(-c3c(C)noc3C)cc12` [P-0442, 4-(1-(1-(tert-butoxycarbonyl)piperidin-4-yl)-5-(3,5-dimethylisoxazol-4-yl)-1H-pyrrolo[2,3-b]pyridin-3-yl)-5-ethoxy-2-fluorobenzoic acid] was 6.00 to 10.00; that for `COc1ccc(CC(=O)O)cc1-c1cn(-c2ccc(F)cc2F)c2ncc(-c3c(C)noc3C)cc12` [P-0443, 2-(3-(1-(2,4-difluorophenyl)-5-(3,5-dimethylisoxazol-4-yl)-1H-pyrrolo[2,3-b]pyridin-3-yl)-4-methoxyphenyl)acetic acid] was 6.00 to 10.00; that for `Cc1noc(C)c1-c1cnc2c(c1)c(-c1cc(F)c(C(=O)O)cc1OC(F)(F)F)cn2-c1ccc(C2CC2)nc1` [P-0444, 4-(1-(6-cyclopropylpyridin-3-yl)-5-(3,5-dimethylisoxazol-4-yl)-1H-pyrrolo[2,3-b]pyridin-3-yl)-2-fluoro-5-(trifluoromethoxy)benzoic acid] was 6.00 to 10.00.
In the case of `CCOc1cc(C(=O)O)c(F)cc1-c1cn(C2CCN(C(=O)C(C)(C)C)CC2)c2ncc(-c3c(C)noc3C)cc12` [P-0445, 4-(5-(3,5-dimethylisoxazol-4-yl)-1-(1-pivaloylpiperidin-4-yl)-1H-pyrrolo[2,3-b]pyridin-3-yl)-5-ethoxy-2-fluorobenzoic acid], the pIC50 was 6.00 to 10.00.
With `CCOc1cc(C(=O)O)c(F)cc1-c1cn(C2CCN(CCC#N)CC2)c2ncc(-c3c(C)noc3C)cc12` [P-0446, 4-(1-(1-(2-cyanoethyl)piperidin-4-yl)-5-(3,5-dimethylisoxazol-4-yl)-1H-pyrrolo[2,3-b]pyridin-3-yl)-5-ethoxy-2-fluorobenzoic acid], the pIC50 was 6.00 to 10.00.
With `CCOc1cc(C(=O)O)c(F)cc1-c1cn(C2CCN(C(=O)CO)CC2)c2ncc(-c3c(C)noc3C)cc12` [P-0447, 4-(5-(3,5-dimethylisoxazol-4-yl)-1-(1-(2-hydroxyacetyl)piperidin-4-yl)-1H-pyrrolo[2,3-b]pyridin-3-yl)-5-ethoxy-2-fluorobenzoic acid], the pIC50 is 6.00 to 10.00.
Turning to `CCc1onc(C)c1-c1cnc2c(c1)c(-c1c(Cl)cc(C(=O)O)cc1OC(F)(F)F)cn2-c1ccc(C2CC2)nc1` [P-0448, 3-chloro-4-(1-(6-cyclopropylpyridin-3-yl)-5-(5-ethyl-3-methylisoxazol-4-yl)-1H-pyrrolo[2,3-b]pyridin-3-yl)-5-(trifluoromethoxy)benzoic acid], the pIC50 was 6.00 to 10.00.
The value for `Cc1nnn(C)c1-c1cnc2c(c1)c(-c1cccc(C(=O)O)c1)cn2[C@@H](C)c1ccccn1` [P-0449, (S)-3-(5-(1,4-dimethyl-1H-1,2,3-triazol-5-yl)-1-(1-(pyridin-2-yl)ethyl)-1H-pyrrolo[2,3-b]pyridin-3-yl)benzoic acid] was 6.00 to 10.00.
